Source: patent publication US9907806B2, “Pharmaceutical composition for emergency contraception” (Bayer Intellectual Property GmbH, priority 2009, dated 2018)
Where “and” joins values, the source holds several entries; their conditions need not be identical. Identical values can stand only once. Like-named read-outs stand apart in the source and are kept apart here.

How the values were obtained:
ovulation [1] = settings: 21-day use; cited from earlier work
[2] = tested on: adult female rats with normal cycles; assay: Ovulation inhibition test on rats; format: in vivo, rat; settings: 5 animals; for Ovulation count, absolute / Ovulation count, mean: 4 days
Protocol: The efficacy of the composition according to the invention was ascertained by ovulation-inhibiting studies carried out on adult female rats with normal cycles. First, using 5 dose groups plus placebo (0.003 mg, 0.01 mg, 0.03 mg, 0.1 mg and 0.3 mg), the limit dose of levonorgestrel (LNG) was determined at which there is still no ovulation-inhibiting effect.
With the dose of LNG thus determined (0.01 mg), a comparison test was then carried out in which the ovulation-inhibiting effect of LNG, placebo, meloxicam, piroxicam, and the combination of LNG and meloxicam, was compared against the composition, according to the invention, of LNG plus piroxicam.
With the onset of the metestrus, 5 animals in each case were treated on four successive days with (a) placebo, (b) 0.01 mg of LNG, (c) 2 mg of piroxicam, (d) 0.01 mg of LNG and 2 mg of piroxicam, (e) 2 mg of meloxicam, and (f) […] of LNG and 3 mg of meloxicam. LNG was given by s.c. administration, and the COX inhibitor was given orally (p.o.).
In the following test, female rats weighing between 200 and 220 g were used. The animals were housed in macrolon cages in rooms under controlled lighting conditions (12 hours of darkness, 12 hours of light), were fed a standard diet and had access to water ad libitum.
Levonorgestrel was dissolved in benzyl benzoate/castor oil (1+4 v/v), and the daily dose was given by s.c. administration in a volume of 1 ml/kg body weight.
The COX inhibitors were suspended in a carrier liquid (85 mg of MyrjR53 (2-hydroxyethyl octadecanoate; CAS no. 9004-99-3) in 100 ml of 0.9% w/v NaCl solution), and the daily dose corresponding to the treatment group was administered orally in a volume of 2 ml/kg body weight.
(§1) Two cycles were monitored using vaginal smears before the start of the test. Only animals with a regular 4-day cycle were entered in the test. The allocation to the treatment groups was randomized. Starting in the metestrus, the test substance was administered for 4 days (days 1-4) and the cycle continued to be monitored. On day 3 of treatment (proestrus), a retrobulbar blood sample was taken at 9.00 h and from 18.30 h in order to determine the luteinizing hormone (LH). On day 4 (after administration), the animals with vaginal smears showing them in estrus or metestrus underwent unilateral ovariectomy under anaesthetic. Crush preparations were made from the tubes and were examined under a microscope for the presence of oocytes. On day 5, all the animals (the intact animals and those having undergone unilateral ovariectomy) were sacrificed, and the tubes of the animals in estrus and metestrus were prepared and examined in the same way. […] By contrast, the COX inhibitors on their own provide only partial suppression of ovulation.
(§2) The test set-up corresponds to the one described in Example 1.

[3] = tested on: adult female rats with normal cycles; assay: Ovulation inhibition test on rats; format: in vivo, rat
ovulation [4] = settings: cited from earlier work
[5] = tested on: ovulated cumulus-oocyte complexes; assay: In vitro fertilization rate of ovulated cumulus-oocyte complexes after in vivo treatment (Example 3); set-up: species or system mice; settings: n=5 animals
From the text: Substances can influence fertility by reducing the fertilizability of oocytes or cumulus-oocyte complexes. In order to investigate such effects, substances can be administered in vivo and, after ovulation from cumulus/oocyte complexes, can be subjected to in vitro fertilization. The in vitro fertilization rate, with no further test substance being added, allows conclusions to be drawn regarding the in vivo effects of the test substances.
Immature female mice (strain: B6D2F1, Charles River, Suelzfeld, age: 19-25 days) were housed in macrolon cages in rooms under controlled lighting conditions (12 hours of darkness, 12 hours of light), were fed a standard diet and had access to water ad libitum. The mice were primed with PMSG (Pregnant Mare Serum Gonadotropin) (10 IU/animal i.p.). After 48 hours, an ovulation-triggering stimulus was induced in the animals by administration of 10 IU/animal i.p. The COX inhibitors were suspended in a carrier liquid (85 mg MyrjR53 (2-hydroxyethyl octadecanoate; CAS no. 9004-99-3) in 100 ml of 0.9% w/v NaCl solution), and the daily dose corresponding to the treatment group (n=5 animals per group) was administered in a volume of 0.2 ml p.o. 8 hours before and together with hCG. Fourteen hours after hCG administration, the animals were sacrificed. Ovulated oocytes and cumulus-oocyte complexes were recovered from the ovarian bursa and/or oviduct and subjected to in vitro fertilization, with a sperm count of 40,000 sperm/0.5 ml for 1 hour being used for the fertilization. Twenty-four hours after incubation with the sperm, the number of fertilized oocytes was established and the percentage fertilization rate determined.

[6] = tested on: serum progesterone concentration; assay: Serum progesterone concentration in proestrus at 19.00 h (Example 2); format: in vivo, rat
Protocol: This can be seen as an indicator of the efficiency of the LH peak in changing from a predominantly estrogen-producing ovary (before the LH peak) to a predominantly progesterone-producing ovary (caused by the LH peak). […] By contrast, the literature describes that other COX inhibitors have no effect on the hormonal levels [Pall et al.; Human Reproduction vol. 16, no. 7, pp 1323-1328 (2001); Bata et al., J Clin Pharmacol (2006) 46:925-932]. […] The ovulation rates in the combination with 0.01 mg of levonorgestrel and 0.5 mg of piroxicam (31 oocytes), with 1 mg of piroxicam (19 oocytes) and with 2 mg of piroxicam (0 oocytes) were much lower here and, in the highest dose, even led to complete anovulation (10 animals per group).
as §1, §2

[7] = 25 mg on 9 successive days (Pall et al.)

C#C[C@]1(OC(C)=O)CC[C@H]2[C@@H]3CCC4=CC(=NO)CC[C@@H]4[C@H]3CC[C@@]21CC (mixture of isomers) [Norgestimate (NGM), Norgestimate]
minimal dose for inhibition of ovulation, p.o. dose/day (ovulation [1]): 180-250 μg^31

CC(=O)O[C@]1(C(C)=O)CC[C@H]2[C@@H]3C=C(Cl)C4=CC(=O)[C@@H]5C[C@@H]5[C@]4(C)[C@H]3CC[C@@]21C [Cyproterone acetate (CPA), Cyproterone acetate]
minimal dose for inhibition of ovulation, p.o. dose/day (ovulation [1]): 1 mg^33

C#C[C@]1(O)CC[C@H]2[C@@H]3CCC4=CCCC[C@@H]4[C@H]3C(=C)C[C@@]21CC [Desogestrel (DSG), Desogestrel]
minimal dose for inhibition of ovulation, p.o. dose/day (ovulation [1]): 60 μg^28

C[C@]12CCC3=C4CCC(=O)C=C4CC[C@H]3[C@@H]1CC[C@@]2(O)CC#N [Dienogest (DNG), Dienogest]
minimal dose for inhibition of ovulation, p.o. dose/day (ovulation [1]): 1-2 mg^29

C[C@]12CCC(=O)C=C1[C@@H]1C[C@@H]1[C@H]1[C@@H]3[C@@H]4C[C@@H]4[C@@]4(CCC(=O)O4)[C@@]3(C)CC[C@@H]12 [Drospirenone (DRSP), Drospirenone]
minimal dose for inhibition of ovulation, p.o. dose/day (ovulation [1]): 2 mg^33

CC(=O)[C@H]1CC[C@H]2[C@@H]3C=CC4=CC(=O)CC[C@@]4(C)[C@@H]3CC[C@]12C [Dydrogesterone]
minimal dose for inhibition of ovulation, p.o. dose/day (ovulation [1]): >30 mg^33

C#C[C@]1(O)CC[C@H]2[C@@H]3CCC4=C[C@@H](O)CC[C@@H]4[C@H]3CC[C@@]21C [Ethynodiol]
minimal dose for inhibition of ovulation, p.o. dose/day (ovulation [1]): 2 mg33

C#C[C@]1(O)C=C[C@H]2[C@@H]3CCC4=CC(=O)CC[C@@H]4[C@H]3CC[C@@]21CC [Gestodene (GSD), Gestodene]
minimal dose for inhibition of ovulation, p.o. dose/day (ovulation [1]): 30 µg and 40 to 50 µg

C#C[C@]1(O)CC[C@H]2[C@@H]3CCC4=CC(=O)CC[C@@H]4[C@H]3CC[C@@]21CC [LNG, levonorgestrel]
Ovulation count, absolute ([2]; LNG 0.01 mg s.c.): 35
Ovulation count, mean ([2]; LNG 0.01 mg s.c.): 7.0 ± 2.0
oocytes ovulated ([3]; Example 2, LNG on its own (0.01 mg s.c.), 10 animals per group): 68 oocytes
oocytes ovulated ([3]; treatment group (b), 0.1 mg of levonorgestrel, 5 animals): 35 oocytes

C#C[C@]1(O)CC[C@H]2[C@@H]3CCC4=CCCC[C@@H]4[C@H]3CC[C@@]21C [Lynestrenol]
minimal dose for inhibition of ovulation, p.o. dose/day (ovulation [1]): 2 mg^33

CC(=O)[C@@]1(C)CC[C@H]2[C@@H]3C=C(C)C4=CC(=O)CC[C@]4(C)[C@H]3CC[C@@]21C [Medrogestone]
minimal dose for inhibition of ovulation, p.o. dose/day (ovulation [1]): 10 mg^33

CC(=O)O[C@]1(C(C)=O)CC[C@H]2[C@@H]3C[C@H](C)C4=CC(=O)CC[C@]4(C)[C@H]3CC[C@@]21C [Medroxyprogesterone acetate (MPA), Medroxyprogesterone acetate]
minimal dose for inhibition of ovulation, p.o. dose/day (ovulation [1]): 10 mg^33

Cc1cnc(NC(=O)C2=C(O)c3ccccc3S(=O)(=O)N2C)s1 [Meloxicam, meloxicam]
Ovulation count, absolute ([2]; COX inhibitor 2 mg p.o.): 28
Ovulation count, mean ([2]; COX inhibitor 2 mg p.o.): 5.6 ± 2.5
delay in ovulation (ovulation [4]; 30 mg per patient and day on 5 successive days (Bata et al.)): 5 days

CC(=O)O[C@]1(C(C)=O)CC[C@H]2[C@@H]3C=C(C)C4=CC(=O)CC[C@@H]4[C@H]3CC[C@@]21C [Nomegestrol acetate (NOMAc), Nomegestrol acetate]
minimal dose for inhibition of ovulation, p.o. dose/day (ovulation [1]): 2.5 mg^32

C#C[C@]1(OC(C)=O)CC[C@H]2[C@@H]3CCC4=CC(=O)CC[C@@H]4[C@H]3CC[C@@]21C [Norethisterone acetate (NETA), Norethisterone acetate]
minimal dose for inhibition of ovulation, p.o. dose/day (ovulation [1]): 0.5 mg^33

C#C[C@]1(O)CC[C@H]2[C@@H]3CCC4=CC(=O)CC[C@@H]4[C@H]3CC[C@@]21C [Norethisterone]
minimal dose for inhibition of ovulation, p.o. dose/day (ovulation [1]): 0.5 mg^33

CN1C(C(=O)Nc2ccccn2)=C(O)c2ccccc2S1(=O)=O [Piroxicam, piroxicam]
Ovulation count, absolute ([2]; COX inhibitor 2 mg p.o.): 9
Ovulation count, mean ([2]; COX inhibitor 2 mg p.o.): 1.8 ± 0.4
oocytes ovulated ([2]; treatment group (c), 2 mg piroxicam on its own): 9 oocytes
Fertilization rate (% ± SD) ([5]; 2 × 0.15 mg/animal p.o.): 19 ± 8%
Fertilization rate (% ± SD) ([5]; 2 × 0.3 mg/animal p.o.): 14 ± 18%
Fertilization rate (% ± SD) ([5]; 2 × 0.5 mg/animal p.o.): 12 ± 7%
Progesterone in proestrus at 19.00 h—mean ± SD (n = 10) ([6]; 0.5 mg p.o.): 237 ± 49
Progesterone in proestrus at 19.00 h—mean ± SD (n = 10) ([6]; 1 mg p.o.): 183 ± 67
Progesterone in proestrus at 19.00 h—mean ± SD (n = 10) ([6]; 2 mg p.o.): 122 ± 94
oocytes ovulated ([3]; 1 mg piroxicam alone): 28 oocytes
oocytes ovulated ([3]; Example 2, 0.5 mg piroxicam p.o., 10 animals per group): 85 oocytes
oocytes ovulated ([3]; Example 2, 1 mg piroxicam p.o., 10 animals per group): 56 oocytes
oocytes ovulated ([3]; Example 2, 2 mg piroxicam p.o., 10 animals per group): 30 oocytes

CC(=O)[C@H]1CC[C@H]2[C@@H]3CCC4=CC(=O)CC[C@]4(C)[C@H]3CC[C@]12C [Progesterone]
minimal dose for inhibition of ovulation, p.o. dose/day (ovulation [1]): 300 mg^33

CCC(=O)[C@@]1(C)CC[C@H]2[C@@H]3CCC4=CC(=O)CCC4=C3CC[C@@]21C [Promegestone]
minimal dose for inhibition of ovulation, p.o. dose/day (ovulation [1]): 0.5 mg^33

C[C@H](O)C(=O)[C@@]1(C)CC[C@H]2[C@@H]3CCC4=CC(=O)CCC4=C3CC[C@@]21C [Trimegestone]
minimal dose for inhibition of ovulation, p.o. dose/day (ovulation [1]): 0.5 mg^33

CS(=O)(=O)c1ccc(C2=C(c3ccccc3)C(=O)OC2)cc1 [rofecoxib]
delay in ovulation (ovulation [4]; [7]): over 48 hours
patients with delay in ovulation of over 48 hours (ovulation [4]; [7]): 4 of 6
